Source: patent US20210261512A1, “NOVEL COMPOUNDS” (INFLAZOME LIMITED, priority 2018, published 2021)

Target: NLRP3 (Homo sapiens, UniProt Q96P20)
Experiment: THP-1 cells pyroptosis assay
Assay type: cell-based
Set-up: Seed THP-1 cells (25,000 cells/well) containing 1.0 μg/ml LPS; host or cells: THP-1
Conditions: LPS 1.0 μg/ml, nigericin 5 μM, resazurin readout, 10 μM top dose (Example 2: top dose of 30 μM)
Outline: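 Pyroptosis induced by 5 μM nigericin (1 h) in LPS-primed (1 μg/ml) THP-1 cells, 25,000/well in serum-free RPMI, after 3 h compound pre-treatment (8 points, 10 μM top unless stated). Surviving cells measured with 100 μM resazurin, Ex 560/Em 590; IC50 via variable-slope 4-parameter regression.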

Chain of NLRP3 (Q96P20 whole entry): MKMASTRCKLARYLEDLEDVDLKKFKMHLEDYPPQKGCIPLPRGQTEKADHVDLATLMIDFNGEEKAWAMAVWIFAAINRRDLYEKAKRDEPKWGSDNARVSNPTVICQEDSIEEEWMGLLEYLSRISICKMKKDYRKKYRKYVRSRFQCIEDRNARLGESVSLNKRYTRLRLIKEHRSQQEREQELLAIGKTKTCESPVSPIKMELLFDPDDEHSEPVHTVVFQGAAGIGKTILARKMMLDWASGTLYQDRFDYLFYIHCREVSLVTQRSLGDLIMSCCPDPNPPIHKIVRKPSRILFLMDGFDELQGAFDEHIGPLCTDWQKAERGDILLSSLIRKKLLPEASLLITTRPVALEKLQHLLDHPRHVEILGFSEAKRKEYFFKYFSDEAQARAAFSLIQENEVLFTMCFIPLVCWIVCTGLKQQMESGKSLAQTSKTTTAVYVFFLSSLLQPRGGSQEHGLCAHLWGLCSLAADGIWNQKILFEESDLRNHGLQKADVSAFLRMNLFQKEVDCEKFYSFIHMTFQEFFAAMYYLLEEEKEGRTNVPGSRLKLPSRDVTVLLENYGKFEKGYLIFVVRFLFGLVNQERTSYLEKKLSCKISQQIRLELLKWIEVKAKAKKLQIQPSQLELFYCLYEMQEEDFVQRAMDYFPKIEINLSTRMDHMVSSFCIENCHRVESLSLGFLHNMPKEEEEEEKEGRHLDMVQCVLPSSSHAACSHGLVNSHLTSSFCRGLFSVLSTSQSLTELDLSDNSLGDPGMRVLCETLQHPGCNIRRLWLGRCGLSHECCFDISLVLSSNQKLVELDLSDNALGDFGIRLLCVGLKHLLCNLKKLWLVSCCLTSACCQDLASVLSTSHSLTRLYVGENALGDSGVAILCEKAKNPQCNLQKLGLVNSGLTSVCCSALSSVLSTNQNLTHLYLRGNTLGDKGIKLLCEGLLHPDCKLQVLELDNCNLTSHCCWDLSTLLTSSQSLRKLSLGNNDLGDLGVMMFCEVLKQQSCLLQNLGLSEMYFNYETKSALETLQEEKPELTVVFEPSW

IC50 [µM] | Compound
≤ 5 | CN(C)C1CCN(S(=O)(=O)c2nnc(Nc3c(-c4cnn(C)c4)ccc4c3CCC4)[nH]2)CC1 [Example 207, N,N-dimethyl-1-((5-((5-(1-methyl-1H-pyrazol-4-yl)-2,3-dihydro-1H-inden-4-yl)amino)-4H-1,2,4-triazol-3-yl)sulfonyl)piperidin-4-amine]
≤ 10 | COc1cc(-c2c(C)cccc2Nc2nnc(S(=O)(=O)N3CCC(N(C)C)CC3)[nH]2)ccn1 [Example 208, 1-((5-((2-(2-methoxypyridin-4-yl)-3-methylphenyl)amino)-4H-1,2,4-triazol-3-yl)sulfonyl)-N,N-dimethylpiperidin-4-amine]
≤ 10 | CN(C)C1CCN(S(=O)(=O)c2nnc(Nc3c(C4CCOCC4)ccc4c3CCC4)[nH]2)CC1 [Example 209, N,N-dimethyl-1-((5-((5-(tetrahydro-2H-pyran-4-yl)-2,3-dihydro-1H-inden-4-yl)amino)-4H-1,2,4-triazol-3-yl)sulfonyl)piperidin-4-amine]
≤ 5 | CN(C)C1CCN(S(=O)(=O)c2nnc(Nc3c4c(c(C#N)c5c3CCC5)CCC4)[nH]2)CC1 [Example 223, 8-((5-((4-(dimethylamino)piperidin-1-yl)sulfonyl)-4H-1,2,4-triazol-3-yl)amino)-1,2,3,5,6,7-hexahydro-s-indacene-4-carbonitrile]
≤ 10 | COc1cc(-c2cc(-c3ncco3)c3c(c2Nc2nnc(S(=O)(=O)N4CCC(N(C)C)CC4)[nH]2)CCC3)ccn1 [Example 229, 1-((5-((5-(2-methoxypyridin-4-yl)-7-(oxazol-2-yl)-2,3-dihydro-1H-inden-4-yl)amino)-4H-1,2,4-triazol-3-yl)sulfonyl)-N,N-dimethylpiperidin-4-amine]
≤ 5 | COc1cc(-c2cc(C#N)c3c(c2Nc2nnc(S(=O)(=O)N4CCC(N(C)C)CC4)[nH]2)CCC3)ccn1 [Example 230, 7-((5-((4-(dimethylamino)piperidin-1-yl)sulfonyl)-4H-1,2,4-triazol-3-yl)amino)-6-(2-methoxypyridin-4-yl)-2,3-dihydro-1H-indene-4-carbonitrile]
≤ 1 | CC(=O)c1c2c(c(Nc3nnc(S(=O)(=O)N4CCC(N(C)C)CC4)[nH]3)c3c1CCC3)CCC2 [Example 232, 1-(8-((5-((4-(dimethylamino)piperidin-1-yl)sulfonyl)-4H-1,2,4-triazol-3-yl)amino)-1,2,3,5,6,7-hexahydro-s-indacen-4-yl)ethan-1-one]
≤ 5 | CS(=O)(=O)c1nnc(Nc2c(-c3ccnc(OCc4ccccc4)c3)ccc3c2CCC3)[nH]1 [Example 234, N-(5-(2-(benzyloxy)pyridin-4-yl)-2,3-dihydro-1H-inden-4-yl)-5-(methylsulfonyl)-4H-1,2,4-triazol-3-amine]
≤ 5 | COCC(C)Oc1cc(-c2ccc3c(c2Nc2nnc(S(C)(=O)=O)[nH]2)CCC3)ccn1 (stereo not drawn) [Example 237, N-(5-(2-((1-methoxypropan-2-yl)oxy)pyridin-4-yl)-2,3-dihydro-1H-inden-4-yl)-5-(methylsulfonyl)-4H-1,2,4-triazol-3-amine]
≤ 10 | CS(=O)(=O)c1nnc(Nc2c(-c3ccnc(OCCO)c3)ccc3c2CCC3)[nH]1 [Example 238, 2-((4-(4-((5-(methylsulfonyl)-4H-1,2,4-triazol-3-yl)amino)-2,3-dihydro-1H-inden-5-yl)pyridin-2-yl)oxy)ethan-1-ol]
≤ 5 | COc1cc(-c2cccc(C(C)C)c2Oc2nnc(S(=O)(=O)N3CCC(N(C)C)CC3)[nH]2)ccn1 [Example 243, 1-((5-(2-isopropyl-6-(2-methoxypyridin-4-yl)phenoxy)-4H-1,2,4-triazol-3-yl)sulfonyl)-N,N-dimethylpiperidin-4-amine]
≤ 5 | O=S(=O)(c1nnc(Nc2c3c(cc4c2CCC4)CCC3)[nH]1)N1CCC2(CCN(C3CC3)C2)CC1 [Example 244, 5-((2-cyclopropyl-2,8-diazaspiro[4.5]decan-8-yl)sulfonyl)-N-(1,2,3,5,6,7-hexahydro-s-indacen-4-yl)-4H-1,2,4-triazol-3-amine]
≤ 5 | COc1cc(-c2cc(F)cc(C(C)C)c2Oc2nnc(S(=O)(=O)N3CCC(N(C)C)CC3)[nH]2)ccn1 [Example 253, 1-((5-(4-fluoro-2-isopropyl-6-(2-methoxypyridin-4-yl)phenoxy)-4H-1,2,4-triazol-3-yl)sulfonyl)-N,N-dimethylpiperidin-4-amine]
≤ 0.5 | CCN1CCCC12CCN(S(=O)(=O)c1nnc(Nc3c4c(cc5c3CCC5)CCC4)[nH]1)CC2 [Example 256, 5-((1-ethyl-1,8-diazaspiro[4.5]decan-8-yl)sulfonyl)-N-(1,2,3,5,6,7-hexahydro-s-indacen-4-yl)-4H-1,2,4-triazol-3-amine]
≤ 5 | CN(C)S(=O)(=O)c1nnc(Nc2c3c(cc4c2CCC4)CCC3)[nH]1 [Example 262, 5-((1,2,3,5,6,7-hexahydro-s-indacen-4-yl)amino)-N,N-dimethyl-4H-1,2,4-triazole-3-sulfonamide]
≤ 5 | O=S(=O)(c1nnc(Nc2c3c(cc4c2CCC4)CCC3)[nH]1)N1CC2(CCN(CC(F)(F)F)C2)C1 [Example 263, N-(1,2,3,5,6,7-hexahydro-s-indacen-4-yl)-5-((6-(2,2,2-trifluoroethyl)-2,6-diazaspiro[3.4]octan-2-yl)sulfonyl)-4H-1,2,4-triazol-3-amine]
≤ 5 | O=S(=O)(c1nnc(Nc2c3c(cc4c2CCC4)CCC3)[nH]1)N1CC2(CCNC2)C1 [Example 265, 5-((2,6-diazaspiro[3.4]octan-2-yl)sulfonyl)-N-(1,2,3,5,6,7-hexahydro-s-indacen-4-yl)-4H-1,2,4-triazol-3-amine]
≤ 5 | O=S(=O)(c1nnc(Nc2c3c(cc4c2CCC4)CCC3)[nH]1)N1CCC2(CCNC2)CC1 [Example 266, 5-((2,8-diazaspiro[4.5]decan-8-yl)sulfonyl)-N-(1,2,3,5,6,7-hexahydro-s-indacen-4-yl)-4H-1,2,4-triazol-3-amine]
≤ 10 | O=S(=O)(c1nnc(Nc2c3c(cc4c2CCC4)CCC3)[nH]1)N1CCC2(CCCN2CC(F)(F)F)CC1 [Example 267, N-(1,2,3,5,6,7-hexahydro-s-indacen-4-yl)-5-((1-(2,2,2-trifluoroethyl)-1,8-diazaspiro[4.5]decan-8-yl)sulfonyl)-4H-1,2,4-triazol-3-amine]
≤ 10 | CN1C[C@H]2[C@@H]1CCN2S(=O)(=O)c1nnc(Nc2c3c(cc4c2CCC4)CCC3)[nH]1 [Example 269, N-(1,2,3,5,6,7-hexahydro-s-indacen-4-yl)-5-(((1S,5S)-6-methyl-2,6-diazabicyclo[3.2.0]heptan-2-yl)sulfonyl)-4H-1,2,4-triazol-3-amine]
≤ 10 | CC(C)(O)CNS(=O)(=O)c1nnc(Nc2c3c(cc4c2CCC4)CCC3)[nH]1 [Example 272, 5-((1,2,3,5,6,7-hexahydro-s-indacen-4-yl)amino)-N-(2-hydroxy-2-methylpropyl)-4H-1,2,4-triazole-3-sulfonamide]
≤ 10 | CN1CCCN(S(=O)(=O)c2nnc(Nc3c4c(cc5c3CCC5)CCC4)[nH]2)CC1 [Example 273, N-(1,2,3,5,6,7-hexahydro-s-indacen-4-yl)-5-((4-methyl-1,4-diazepan-1-yl)sulfonyl)-4H-1,2,4-triazol-3-amine]
≤ 5 | CN1CC2(CCN(S(=O)(=O)c3nnc(Nc4c5c(cc6c4CCC6)CCC5)[nH]3)CC2)C1 [Example 280, N-(1,2,3,5,6,7-hexahydro-s-indacen-4-yl)-5-((2-methyl-2,7-diazaspiro[3.5]nonan-7-yl)sulfonyl)-4H-1,2,4-triazol-3-amine]
≤ 10 | O=S(=O)(c1nnc(Nc2c3c(cc4c2CCC4)CCC3)[nH]1)N1CCn2cncc2C1 [Example 281, 5-((5,6-dihydroimidazo[1,5-a]pyrazin-7 (8H)-yl)sulfonyl)-N-(1,2,3,5,6,7-hexahydro-s-indacen-4-yl)-4H-1,2,4-triazol-3-amine]
≤ 5 | COC(C)(C)C1CCN(S(=O)(=O)c2nnc(Nc3c4c(cc5c3CCC5)CCC4)[nH]2)C1 (stereo not drawn) [Example 282, N-(1,2,3,5,6,7-hexahydro-s-indacen-4-yl)-5-((3-(2-methoxypropan-2-yl)pyrrolidin-1-yl)sulfonyl)-4H-1,2,4-triazol-3-amine]
≤ 5 | COCC1CCN(S(=O)(=O)c2nnc(Nc3c4c(cc5c3CCC5)CCC4)[nH]2)C1 (stereo not drawn) [Example 283, N-(1,2,3,5,6,7-hexahydro-s-indacen-4-yl)-5-((3-(methoxymethyl)pyrrolidin-1-yl)sulfonyl)-4H-1,2,4-triazol-3-amine]
≤ 10 | O=S(=O)(c1nnc(Nc2c3c(cc4c2CCC4)CCC3)[nH]1)N1CC[C@H](CO)C1 [Example 284, (S)-(1-((5-((1,2,3,5,6,7-hexahydro-s-indacen-4-yl)amino)-4H-1,2,4-triazol-3-yl)sulfonyl)pyrrolidin-3-yl)methanol]
≤ 5 | O=S(=O)(c1nnc(Nc2c3c(cc4c2CCC4)CCC3)[nH]1)N1CC(c2ccccn2)C1 [Example 285, N-(1,2,3,5,6,7-hexahydro-s-indacen-4-yl)-5-((3-(pyridin-2-yl)azetidin-1-yl)sulfonyl)-4H-1,2,4-triazol-3-amine]
≤ 10 | O=S(=O)(c1nnc(Nc2c3c(cc4c2CCC4)CCC3)[nH]1)N1CCC2(CC1)CNC2 [Example 287, 5-((2,7-diazaspiro[35]nonan-7-yl)sulfonyl)-N-(1,2,3,5,6,7-hexahydro-s-indacen-4-yl)-4H-1,2,4-triazol-3-amine]

Compound | IC50 [µM]
O=S(=O)(c1nnc(Nc2c3c(cc4c2CCC4)CCC3)[nH]1)N1CCC2(CCCN2CCF)CC1 [Example 255, 5-((1-(2-fluoroethyl)-1,8-diazaspiro[4.5]decan-8-yl)sulfonyl)-N-(1,2,3,5,6,7-hexahydro-s-indacen-4-yl)-4H-1,2,4-triazol-3-amine] | ≤ 1
